In the supplement of paper PMC4862054:
Values joined by “and” are separate entries in the source; they are usually repeats but may differ in a detail not shown here. Identical values can stand only once.

Experiments:
BT-474 [1] = details: 72 h
How it was run: (§1)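 Breast cancer cell lines in 20 µl suspension were added to 384-well plates already holding compound at 5 concentrations, spaced in 10-fold steps across a compound-specific 10,000-fold range, and incubated for 72 h. CellTox Green fluorescence (485/520 nm) was read first to measure cell death, followed by CellTiter-Glo luminescence for viability after 10 min at room temperature. Each plate was normalised to 0.1 % DMSO and a positive kill control. EC50 values came from dose-response curve fits and were censored at the top concentration.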

BT-549 [2] = details: 72 h
How it was run: as §1

CAL-120 [3] = details: 72 h
How it was run: as §1

CAL-51 [4] = details: 72 h
How it was run: as §1

CAL-85-1 [5] = details: 72 h
How it was run: as §1

HCC1937 = details: 72 h
How it was run: as §1

Hs578T [6] = details: 72 h
How it was run: as §1

MCF-10A = details: 72 h
How it was run: as §1

MDA-MB-231 [7] = details: 72 h
How it was run: as §1

MDA-MB-436 = details: 72 h
How it was run: as §1

MDA-MB-453 [8] = details: 72 h
How it was run: as §1

MDA-MB-468 [9] = details: 72 h
How it was run: as §1

SK-BR-3 [10] = details: 72 h
How it was run: as §1

MDA-MB-453 [11] = details: 72 h; remark: listed apart in the source
How it was run: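 Rows with a drug sensitivity score of zero were dropped, and EC50 was taken from the fitted percent-inhibition dose-response curve, censored at the highest concentration. Data were normalised on each plate to vehicle and a positive kill control and checked by Z'-factor. The assay seeded breast cancer cell lines in 20 µl onto 384-well plates pre-loaded with compound in 5 µl medium for 72 h, then added 2.5 µl CellTiter-Blue for 2 h at 37 °C and read fluorescence at 560/590 nm.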

CAL-148 = experiment: normalised viability (% of control), CellTiter-Blue; higher = more viable cells (about 100 = DMSO control); details: incubation time: 72 h
Protocol: (§2)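 DSRT, CellTiter-Blue viability, 72 h incubation. Signal is normalised to DMSO and benzethonium chloride controls. Value is the normalised response at dose 8.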

CAL-51 [12] = experiment: as above; details: incubation time: 72 h
Protocol: as §2

CAL-85-1 [13] = experiment: as above; details: incubation time: 72 h
Protocol: as §2

DU-4475 [14] = experiment: as above; details: incubation time: 72 h
Protocol: as §2

HDQ-P1 [15] = experiment: as above; details: incubation time: 72 h
Protocol: as §2

MDA-MB-453 [16] = experiment: as above; details: incubation time: 72 h
Protocol: as §2

BT-474 [17] = experiment: normalised viability (% of control), CellTiter-Blue; higher = more viable cells (about 100 = DMSO control); details: incubation time: 72 h
How it was run: (§3)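 Each value is normalised viability at a single listed concentration of the series. Breast cancer cell lines in 384-well plates were incubated 72 h with compound and read by CellTiter-Blue fluorescence at 560/590 nm, with vehicle set to 100 and a positive kill control to 0 on every plate.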

BT-549 [18] = experiment: as above; details: incubation time: 72 h
How it was run: as §3

CAL-120 [19] = experiment: as above; details: incubation time: 72 h
How it was run: as §3

CAL-85-1 [20] = experiment: as above; details: incubation time: 72 h; remark: listed apart in the source
How it was run: as §3

DU-4475 [21] = experiment: as above; details: incubation time: 72 h; remark: listed apart in the source
How it was run: as §3

HCC1143 = experiment: as above; details: incubation time: 72 h
How it was run: as §3

Hs578T [22] = experiment: as above; details: incubation time: 72 h
How it was run: as §3

MDA-MB-231 [23] = experiment: as above; details: incubation time: 72 h
How it was run: as §3

MDA-MB-468 [24] = experiment: as above; details: incubation time: 72 h
How it was run: as §3

SK-BR-3 [25] = experiment: as above; details: incubation time: 72 h
How it was run: as §3

HDQ-P1 [26] = experiment: drug sensitivity score (DSS), CellTiter-Glo (DSS (AUC-based score)); higher = stronger drug effect (viability inhibition or cytotoxicity); extreme values may be limits of the assay; details: incubation time: 72 h
How it was run: (§4)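 The area under the fitted dose-response curve was used to calculate the drug sensitivity score. Cells from breast cancer lines were incubated for 72 h in 384-well plates with compound at 5 concentrations spaced 10-fold over a 10,000-fold range specific to each compound. Plates were read for CellTox Green and then CellTiter-Glo, and normalised to 0.1 % DMSO and a positive kill control.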

Hs578T [27] = experiment: as above; details: incubation time: 72 h
How it was run: as §4

MDA-MB-468 [28] = experiment: as above; details: incubation time: 72 h
How it was run: as §4

| SMILES | EC50, CellTiter-Glo (BT-474 [1]) | EC50, CellTiter-Glo (BT-549 [2]) | EC50, CellTiter-Glo (CAL-120 [3]) | EC50, CellTiter-Glo (CAL-51 [4]) | EC50, CellTiter-Glo (CAL-85-1 [5]) | EC50, CellTiter-Glo (HCC1937) | EC50, CellTiter-Glo (Hs578T [6]) | EC50, CellTiter-Glo (MCF-10A) | EC50, CellTiter-Glo (MDA-MB-231 [7]) | EC50, CellTiter-Glo (MDA-MB-436) | EC50, CellTiter-Glo (MDA-MB-453 [8]) | EC50, CellTiter-Glo (MDA-MB-468 [9]) | EC50, CellTiter-Glo (SK-BR-3 [10]) | EC50, CellTiter-Blue viability (MDA-MB-453 [11]) | normalised viability (CAL-148; 3000 nM) | normalised viability (CAL-51 [12]; 3000 nM) | normalised viability (CAL-85-1 [13]; 3000 nM) | drug sensitivity score (HDQ-P1 [26]) | drug sensitivity score (Hs578T [27]) | drug sensitivity score (MDA-MB-468 [28]) | also measured |
| --- | --- | --- | --- | --- | --- | --- | --- | --- | --- | --- | --- | --- | --- | --- | --- | --- | --- | --- | --- | --- | --- |
| COc1ccc(-c2ccc3c(N4CCOC[C@@H]4C)nc(N4CCOC[C@@H]4C)nc3n2)cc1CO [AZD8055] | 121 nM | 30.8 nM | 37.5 nM | 45.4 nM | 31.8 nM | 100 nM | 57.5 nM | 61 nM | 73.8 nM | 11.6 nM | 24.6 nM | 43.3 nM | 7.23 nM | 17.1 nM | 5.57% | 10.5% | 18.6% | 20.9 | 20.2 | 22.2 | normalised viability (DU-4475 [14]; 3000 nM): 14.1%; normalised viability (HDQ-P1 [15]; 3000 nM): 21.8%; normalised viability (MDA-MB-453 [16]; 3000 nM): 14.6%; normalised viability (BT-474 [17]; 100 nM): 52.2%; normalised viability (BT-549 [18]; 100 nM): 44.3%; normalised viability (CAL-120 [19]; 100 nM): 32.5%; normalised viability (CAL-85-1 [20]; 10 nM): 79.8%; normalised viability (DU-4475 [21]; 10 nM): 102%; normalised viability (HCC1143; 100 nM): 55.8%; normalised viability (Hs578T [22]; 100 nM): 33.7%; normalised viability (MDA-MB-231 [23]; 100 nM): 50%; normalised viability (MDA-MB-468 [24]; 100 nM): 70%; normalised viability (SK-BR-3 [25]; 100 nM): 23.6% |
| CN(C)CCN1C(=O)c2cccc3cc(N)cc(c23)C1=O [Amonafide] | 1660 nM | 3270 nM | 2700 nM | 5570 nM | 9240 nM | > 10000 nM | 1920 nM | 8420 nM | 2840 nM | 7370 nM |  | 7960 nM | 5430 nM | 4230 nM | 32% | 55.7% | 61.9% | 0 | 2.97 | 2.59 | normalised viability (DU-4475 [14]; 3000 nM): 57.9%; normalised viability (HDQ-P1 [15]; 3000 nM): 79.6%; normalised viability (MDA-MB-453 [16]; 3000 nM): 68.3%; normalised viability (BT-474 [17]; 100 nM): 119%; normalised viability (BT-549 [18]; 100 nM): 94.9%; normalised viability (CAL-120 [19]; 100 nM): 95.4%; normalised viability (CAL-85-1 [20]; 10 nM): 91.6%; normalised viability (DU-4475 [21]; 10 nM): 95.8%; normalised viability (HCC1143; 100 nM): 87%; normalised viability (Hs578T [22]; 100 nM): 84.8%; normalised viability (MDA-MB-231 [23]; 100 nM): 88%; normalised viability (MDA-MB-468 [24]; 100 nM): 113%; normalised viability (SK-BR-3 [25]; 100 nM): 76% |
| CO[C@H]1C[C@@H]2CC[C@@H](C)[C@@](O)(O2)C(=O)C(=O)N2CCCC[C@H]2C(=O)O[C@H]([C@H](C)C[C@@H]2CC[C@@H](OCCO)[C@H](OC)C2)CC(=O)[C@H](C)/C=C(\C)[C@@H](O)[C@@H](OC)C(=O)[C@H](C)C[C@H](C)/C=C/C=C/C=C/1C [Everolimus] | 4.76 nM | 0.13 nM | 0.67 nM | 0.67 nM | 0.22 nM | 0.24 nM | 0.18 nM |  |  | 0.76 nM | 1.65 nM | 0.13 nM | 0.49 nM | 0.4 nM |  |  |  | 3.41 | 9.44 | 16 | normalised viability (CAL-148; 300 nM): 39% and 37.2%; normalised viability (CAL-51 [12]; 300 nM): 40.4% and 43.4%; normalised viability (CAL-85-1 [13]; 300 nM): 57% and 52.9%; normalised viability (DU-4475 [14]; 300 nM): 60.9% and 62.6%; normalised viability (HDQ-P1 [15]; 300 nM): 72.9% and 72.6%; normalised viability (MDA-MB-453 [16]; 300 nM): 28.7% and 29.6%; normalised viability (BT-474 [17]; 10 nM): 65.6% and 61.3%; normalised viability (BT-549 [18]; 10 nM): 66.5% and 53.2%; normalised viability (CAL-120 [19]; 10 nM): 55.3% and 43%; normalised viability (CAL-85-1 [20]; 1 nM): 71.8% and 59.9%; normalised viability (DU-4475 [21]; 1 nM): 96.6% and 83.4%; normalised viability (Hs578T [22]; 10 nM): 42.7% and 48.8%; normalised viability (MDA-MB-231 [23]; 10 nM): 92.7% and 69.3%; normalised viability (MDA-MB-468 [24]; 10 nM): 84.1% and 59.7%; normalised viability (SK-BR-3 [25]; 10 nM): 48.1% and 51.2% |
| CCCCCCCCc1ccc(CCC(N)(CO)CO)cc1 [Fingolimod] | 2870 nM | 4440 nM |  | 2040 nM | 3340 nM | 3900 nM |  | 3350 nM | 2800 nM | 4810 nM | 3370 nM | 3050 nM | 3330 nM | 5400 nM | 88.8% | 109% | 91.7% | 2.05 | 0 | 5.78 | normalised viability (DU-4475 [14]; 3000 nM): 117%; normalised viability (HDQ-P1 [15]; 3000 nM): 95%; normalised viability (MDA-MB-453 [16]; 3000 nM): 95.2%; normalised viability (BT-474 [17]; 100 nM): 119%; normalised viability (BT-549 [18]; 100 nM): 117%; normalised viability (CAL-120 [19]; 100 nM): 90.7%; normalised viability (CAL-85-1 [20]; 10 nM): 103%; normalised viability (DU-4475 [21]; 10 nM): 113%; normalised viability (HCC1143; 100 nM): 106%; normalised viability (Hs578T [22]; 100 nM): 97.1%; normalised viability (MDA-MB-231 [23]; 100 nM): 89.3%; normalised viability (MDA-MB-468 [24]; 100 nM): 101%; normalised viability (SK-BR-3 [25]; 100 nM): 85.8% |
| C/C(=C\c1csc(C)n1)[C@@H]1C[C@@H]2O[C@]2(C)CCC[C@H](C)[C@H](O)[C@@H](C)C(=O)C(C)(C)[C@@H](O)CC(=O)O1 [Patupilone] | 219 nM | 9.09 nM | 73.8 nM | 8.54 nM | 18.9 nM | > 1000 nM | 57.3 nM | 57.4 nM | 149 nM | 14.9 nM | 84.9 nM | 7.53 nM | 38.9 nM | 4.4 nM |  |  |  | 4.83 | 12.7 | 18.2 | normalised viability (CAL-148; 300 nM): 17.6%; normalised viability (CAL-51 [12]; 300 nM): 12.7%; normalised viability (CAL-85-1 [13]; 300 nM): 26.8%; normalised viability (DU-4475 [14]; 300 nM): 7.32%; normalised viability (HDQ-P1 [15]; 300 nM): 41%; normalised viability (MDA-MB-453 [16]; 300 nM): 20.4%; normalised viability (BT-474 [17]; 10 nM): 66.4%; normalised viability (BT-549 [18]; 10 nM): 29.4%; normalised viability (CAL-120 [19]; 10 nM): 51.6%; normalised viability (CAL-85-1 [20]; 1 nM): 73.7%; normalised viability (DU-4475 [21]; 1 nM): 95.4%; normalised viability (HCC1143; 10 nM): 66%; normalised viability (Hs578T [22]; 10 nM): 36.7%; normalised viability (MDA-MB-231 [23]; 10 nM): 22.7%; normalised viability (MDA-MB-468 [24]; 10 nM): 54.4%; normalised viability (SK-BR-3 [25]; 10 nM): 28.4% |
